Measurements from patent US20260151398A1, “COMPOUNDS FOR REDUCING CHOLESTEROL AND TREATING LIVER AND KIDNEY DISEASE” (McMaster University, priority 2021, published 2026).

Legend:
[1] = test system: PCSK9; assay: PCSK9 expression in hepatocytes (immunoblot, real-time PCR); type: cell-based, human, mouse; details: HuH7; ryanodine 10 μM, CDN 100 μM, 2 APB 50 μM; presence or absence of TG; 24 h
Method: (§1) HuH7 and HepG2 cells were routinely grown in complete Dulbecco's Modified Eagle's Medium (Gibco, Thermofisher Scientific) supplemented with 10% fetal bovine serum (Sigma-Aldrich) and 100 U/ml of penicillin and streptomycin (Sigma-Aldrich). […] All cell treatments were carried out for 24 h unless otherwise stated. Cells were transfected with a cocktail consisting of plasmid DNA (1 μg), X-tremeGENE HP (3 μl; Thermofisher Scientific) and opti-MEM (100 μl; Thermofischer Scientific) per 1 ml complete medium containing plated cells. Human PCSK9 was overexpressed using the bicistronic pIRES-EGFP plasmid; calnexin using the mPA-GFP-N1 plasmid. To block the expression of GRP78 and CD36, siGENOME smartpool siRNA was purchased from GE Dharmacon (M-008198-02 and L-010206-00-0005 respectively) and transfected using lipofectamine RNAiMAX as per manufacturer's protocol.
(§2) Cells were washed in phosphate-buffered saline (PBS), lysed in 4× SDS-PAGE lysis buffer and separated on 7-10% polyacrylamide gels in denaturing conditions. Gels were transferred to nitrocellulose membranes using the BioRad mini trans-blot system, blocked in 5% skim milk in tris-buffered saline (TBS) for 1 h and incubated in primary antibody overnight for 16 h at 4° C. Membranes were then exposed to horse radish peroxidase conjugated secondary antibodies and visualized using EZ-ECL chemiluminescent reagent (Froggabio). Band intensities were quantified using ImageJ software ([…]) against membranes reprobed for housekeeping proteins.
(§3) RNA purification/isolation was performed using RNeasy mini kits (Qiagen) and normalized to 2 μg RNA using a NanoDrop® spectrophotometer. Samples were then reverse transcribed into cDNA using Superscript Vilo cDNA Synthesis kit (Thermofisher Scientific). Real-time PCR was executed with Fast SYBR Green (Thermo Fisher Scientific) using the ΔΔct method on the ViiA7 real-time PCR platform (Thermofisher Scientific).
Cultured immortalized hepatocytes known to express and secrete PCSK9 (Lebeau, P., et al., 2017), including HuH7 and HepG2 cells, as well as primary mouse- and human-hepatocytes (PMH and PHH, respectively), were treated with CF for 24 h and assessed for PCSK9 expression via immunoblots and real-time PCR (FIG. 1 A to D). […] Given that sterol deprivation represents another well-established promoter of SREBP2 activation (Lebeau, P., et al., 2017), cells were also treated with CF in the presence and absence of U18666A (U18) that depletes intracellular sterols. […] Next, HepG2 cells were treated with an increasing dose of CF.

[2] = test system: PCSK9; assay: PCSK9 secretion from cultured and primary hepatocytes (ELISA of medium); type: cell-based, human, mouse; details: ELISA of medium
Method: as §1
(§4) Secreted PCSK9 levels were assessed directly in cell culture medium of cells grown in FBS-free medium for 24 h or in the serum isolated from either mice or human subjects. Mouse PCSK9 was measured using the Quantikinine® ELISA kit (#MCP900, R&D Systems) and human PCSK9 using the PCSK9 Quantikinine® ELISA kit (#DCP900, R&D Systems). Serum ApoB levels were also quantified using ELISAs (#DAPB00, R&D Systems). Serum samples were diluted as per manufacturer's instructions.
All animal studies were carried out in 8 h-fasted male wild-type, Pcsk9^−/− or Ampkβ1^−/− mice on the C57BL/6J background. CF (25-100 mg/kg-8 h) and CDN (50 mg/kg) treatments were administered via intraperitoneal injection unless specified otherwise. Primary mouse hepatocytes were isolated using a two-step process with EGTA ([…] in HEPES buffer, Sigma Aldrich) and collagenase (0.05% in HEPES buffer, Sigma Aldrich) in 12-week-old male mice on the C57BL/6J background. Cells were then washed, centrifuged, and plated following isolation in cell strainers. Hepatosure® 100-donor pooled primary human hepatocytes were purchased from Xenotech. Primary hepatocytes were regularly grown in William's E medium (Gibco, Thermo Fisher Scientific) containing 10% fetal bovine serum, 100 IU/ml penicillin, and 100 µg/ml streptomycin.

[3] = test system: ER stress markers (GRP78, ATF4, pPERK, IRE1α, sXBP1, ATF6); assay: ER stress / UPR readouts in hepatocytes; type: cell-based, human; details: HuH7; with TG 100 nM
Method: as §2
Following treatment, live cells were incubated in complete DMEM containing 5 μM Thioflavin-T (ThT; Thermofisher Scientific) for 15 minutes. Cells were then fixed in 4% paraformaldehyde and mounted with permafluor. Fluorescent staining was visualized using the EVOS FL colour system at either 20 or 40× magnification.
as §3
Because ER Ca^2+ depletion induces a compensatory unfolded protein response (UPR), it was also postulated that CF may attenuate UPR marker expression by increasing ER Ca^2+ levels. […] Reactive oxygen species production, a process known to occur during conditions of ER stress, was also attenuated by CF (FIG. 9 H). […] While increasing the protein binding ability of chaperones, such as GRP78, CF also attenuates SREBP2-driven gene expression (FIG. 7 L).

[4] = test system: PCSK9; assay: Secreted PCSK9 levels in HepG2 cells (ELISA); type: cell-based, human; details: for PCSK9 mRNA expression and secreted levels with increasing doses / reduction of secreted PCSK9 levels compared to CF at the same dose: HepG2; for PCSK9 reduction (100 nM): Table 6, HepG2 cells, 24 h, 100 nM as printed in the cell; for efficacy for PCSK9 inhibition compared with caffeine: initial screening
Method: as §1, §4
CF, however, is a well-characterized compound having several health benefits with few known adverse effects. Achieving an optimal level of PCSK9 inhibition absent of the neuro-excitatory effect of CF, however, may be a challenge for the long-term clinical application of these findings. […] See Table 6 for the structure activity relationships of several other known xanthine-based compounds explored at varying doses in HepG2 cells for 24 h.

[5] = test system: SREBP2; assay: SREBP2 expression and activation in hepatocytes (real-time PCR, SRE-GFP reporter, immunoblot, immunofluorescence); type: cell-based, human, mouse; details: HepG2, real-time PCR
Method: as §2
Cells were plated in 4-well chamber slides and incubated in complete DMEM for 24 h and exposed to treatments 24 h later for an additional 24 h. Cells were fixed with 4% paraformaldehyde for 30 minutes and washed with either non-permeabilizing, or permeabilizing PBS containing 0.025% Triton-X. Cells were then blocked with 1% bovine serum albumin (BSA) for 30 minutes and stained with anti-GFP antibody for 1 h in PBS containing 1% BSA. Afterwards, cells were washed and incubated with Alexa 488 fluorescently-labelled secondary antibodies (Thermofisher Scientific), as well as the DAPI nuclear stain. Slides were then mounted with permafluor and visualized using the EVOS FL colour imaging system at either 20 or 40× magnification.
as §3
Therefore, the effect of CF on TG-; induced SREBP2 activation was examined. […] SREBP2 activity was then examined at the protein level in HuH7 cells transfected with a plasmid encoding GFP driven by the sterol regulatory element (SRE-GFP; FIG. 2E to G). […] GFP expression was also visualized via immunofluorescent staining and quantified using ImageJ Software.

[6] = test system: HepG2 cells; assay: DiI-LDL uptake assay in HepG2 cells; type: cell-based, human; details: for DiI-LDL cholesterol uptake: HepG2, 10 μM
Method: During the last 5 h of treatment (h 19 to 24) cells were exposed to DiI-LDL (10 μg/ml) and then washed with two changes of pre-warmed (37° C.) HBSS containing 20 mM HEPES prior to analysis.
(§5) The uptake and accumulation of DiI-LDL was then quantified using a fluorescent spectrophotometer (Molecular Devices). […] Live-cell staining of the LDLR was also performed in HepG2 cells exposed to DiI-LDL (FIG. 11 D).

[7] = test system: LDLR; assay: LDLR / CD36 expression in cultured hepatocytes; type: cell-based, human; details: HepG2, 10 μM, immunofluorescent staining
Description: as §2, with “Gels were transferred to nitrocellulose membranes using the BioRad mini trans-blot system, blocked in 5% skim milk in tris-buffered saline (TBS) for 1 h and incubated in primary antibody overnight for 16 h at 4° C.” left out
Slides were then mounted with permafluor and visualized using the EVOS FL colour imaging system at either 20 or 40× magnification.
as §3, §5

[8] = test system: HepG2 hepatocytes; assay: LDH cytotoxicity assay in HepG2 hepatocytes; type: cell-based, human; details: cultured HepG2 hepatocytes
Method: Secreted PCSK9 levels were assessed using ELISAs and mRNA transcript via real-time PCR. […] Secreted PCSK9, as well as PCSK9 mRNA and SREBP2 mRNA were assessed in these cells. (E) The cytotoxicity of these agents was examined using an LDH assay. […] (G) The uptake of DiI-LDL was also quantified in these cells using a spectrophotometer. Values are presented as the mean and error bars as SD. *, p<0.05 vs. vehicle; NS, non-significant.

NCCOB(c1ccccc1)c1ccccc1 [2 APB, 2-APB]
SREBP2 and PCSK9 mRNA transcript level [1]: blocked SREBP2 and PCSK9 at the mRNA transcript level | PCSK9 secretion with Ca2+-modulating agents [2]: blocked PCSK9 secretion | TG-induced GRP78 expression [3]: blocked TG-induced expression

Cn1c(=O)c2c(nc(/C=C/c3cccc(Cl)c3)n2C)n(C)c1=O [8CC, 8-(3-Chlorostyryl) CF]
PCSK9 mRNA expression and secreted levels with increasing doses [4]: dose-dependent reduction

Cn1c(=O)c2[nH]c(C3CCCC3)nc2n(C)c1=O [8CD, 8-cyclopentyl-1,3-dimethylxanthine]
PCSK9 mRNA expression and secreted levels with increasing doses [4]: dose-dependent reduction

Cn1c(=O)c2[nH]c(-c3ccncc3)nc2n(C)c1=O [I-9]
PCSK9 reduction (100 nM) [4]: 0.86 (100 nM)

Cn1c(=O)c2[nH]c(-c3ccc([N+](=O)[O-])cc3)nc2n(C)c1=O [I-10]
PCSK9 reduction (100 nM) [4]: 0.93 (100 nM)

Cn1c(=O)c2[nH]c(-c3cc(F)c(F)cc3F)nc2n(C)c1=O [Ia-1]
reduction of secreted PCSK9 levels compared to CF at the same dose [4]: 2 fold | efficacy for PCSK9 inhibition compared with caffeine [4]: significantly greater efficacy for PCSK9 inhibition than caffeine | PCSK9 and SREBP2 mRNA [5]: antagonism of SREBP2 reduced de novo synthesis of PCSK9 | DiI-LDL cholesterol uptake [6]: significant increase | cell-surface LDLR expression [7]: significant increase in LDLR expression | cytotoxicity (LDH assay) [8]: did not exhibit cytotoxic properties

Cn1c(=O)c2[nH]c(-c3ccc([N+](=O)[O-])o3)nc2n(C)c1=O [Ia-7]
reduction of secreted PCSK9 levels compared to CF at the same dose [4]: 2 fold | efficacy for PCSK9 inhibition compared with caffeine [4]: significantly greater efficacy for PCSK9 inhibition than caffeine | PCSK9 and SREBP2 mRNA [5]: antagonism of SREBP2 reduced de novo synthesis of PCSK9 | DiI-LDL cholesterol uptake [6]: significant increase | cell-surface LDLR expression [7]: significant increase in LDLR expression | cytotoxicity (LDH assay) [8]: did not exhibit cytotoxic properties

CCCn1c(=O)[nH]c2nc(-c3ccc(S(=O)(=O)N4CCN(c5ccc(Cl)cc5)CC4)cc3)[nH]c2c1=O [PSB603]
PCSK9 mRNA expression and secreted levels with increasing doses [4]: dose-dependent reduction

CCN(CC)CCO[C@H]1CC[C@@]2(C)C(=CC[C@@H]3[C@@H]2CC[C@]2(C)C(=O)CC[C@@H]32)C1 [U18, U18666A]
PCSK9 secretion with Ca2+-modulating agents [2]: increased PCSK9 secretion | LDLc (DiI-LDL) uptake ([6]; HepG2, 24 h treatment, DiI-LDL 5 h): reduced LDLc uptake

Cn1c(=O)[nH]c2ncn(C)c2c1=O [paraxanthine]
PCSK9 mRNA expression and secreted levels with increasing doses [4]: dose-dependent reduction

CCCCCCCC/C=C\CCCCCCCC(=O)ON1C(=O)CC(S(=O)(=O)O)C1=O (stereo not shown) [sulfosuccinimidyl oleate]
effect of CD36 inhibition on CF-mediated DiI-LDL uptake ([6]; HepG2): failed to affect CF-mediated DiI-LDL uptake

Cn1cnc2c1c(=O)[nH]c(=O)n2C [theobromine]
PCSK9 mRNA expression and secreted levels with increasing doses [4]: dose-dependent reduction
